Data taken from PMC5008636, “Phosphatidylserine and Phosphatidylethanolamine Bind to Protein Z Cooperatively and with Equal Affinity” (PLoS ONE, 2016).
Entries after “also recorded” stand apart in the source; their conditions may differ. Like-named read-outs stand apart in the source and are kept apart here. Values belong to the compound of their own block, whether it stands above or below them.

How the values were obtained:
PZ [1] = target: T1, PZ (Homo sapiens, UniProt P22891); assay: Binding of soluble lipids to PZ by intrinsic tryptophan fluorescence; details: for Kd in 1 mM Ca2+ relative to Kd in 5 mM Ca2+: 1 mM vs 5 mM Ca2+; for binding to PZ with excess EDTA: 5 mM EDTA in the assay buffer; for effect of pre-incubation of PZ with C6PS on affinity of PZ towards the lipid: saturating amount of C6PS; for lower binding affinity to PZ compared to PS and PE: soluble lipids, 5 mM Ca2+
T1 construct: purchased Enzyme Research Laboratories (South Bend, IN, USA)
T1 sequence (P22891 41-400): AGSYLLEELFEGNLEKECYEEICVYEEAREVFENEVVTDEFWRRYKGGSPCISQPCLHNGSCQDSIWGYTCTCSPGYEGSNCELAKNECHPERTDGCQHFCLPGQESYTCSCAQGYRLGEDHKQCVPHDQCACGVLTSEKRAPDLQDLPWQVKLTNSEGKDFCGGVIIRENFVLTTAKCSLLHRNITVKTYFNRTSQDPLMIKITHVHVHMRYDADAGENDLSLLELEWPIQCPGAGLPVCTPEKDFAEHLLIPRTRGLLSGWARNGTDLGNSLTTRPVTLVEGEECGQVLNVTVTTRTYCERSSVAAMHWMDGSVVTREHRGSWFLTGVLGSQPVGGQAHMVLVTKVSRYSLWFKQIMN
Method: (§1) PZ intrinsic tryptophan fluorescence as a function of increasing concentration of soluble phospholipid was measured as described in [12] using a FluoroLog spectrofluorometer (Horiba Jobin-Yvon Inc., Edison, NJ) with an excitation wavelength of 285nm (band-pass 4 nm); emission was recorded at 340 nm (band-pass 4 nm). Each experiment was performed below the critical micelle concentration (CMC) of the soluble lipid. The CMC was determined under experimental conditions following pyrene fluorescence as a function of increasing lipid concentration. Apparent dissociation constants for binding of PZ to soluble lipids were obtained by fitting the experimental data to a simple, single-site binding model, using the assumption that [C6PL]free ≈ [C6PL]total

PZ [2] = target: T1, PZ; assay: Equilibrium dialysis of soluble C6PS/C6PE binding to PZ; details: for Stoichiometry (Average) of lipid binding to PZ / ΔP (difference in phosphate concentration): 250 μM lipid, 5 mM Ca2+; for Stoichiometry (Average) of lipid binding to PZ: PZ 15, 20, 30 μM, calculated from Eq (1); for binding to PZ in equilibrium dialysis without Ca2+: absence of Ca2+ and presence of EDTA in the buffer
Method: Experiments were performed using 2.0-ml Teflon dialysis cells (Harvard Apparatus, Holliston, MA) with the two cells separated by a 2000 Da molecular weight cut-off membrane. Both chambers contained equal amount of […], and one chamber contained the appropriate amount of PZ. Both chambers were allowed to equilibrate with each other at room temperature for 24 h while being rotated horizontally at 20 rpm. […] where, n is the stoichiometry of binding, [L] is the concentration of phospholipid added to the chamber, [P] is the protein concentration present in one half of the chamber, and Kd is the binding constant obtained from fluorescence experiments. Total protein concentration, [P], must be large enough to detect a measurable difference in phosphate concentration between the two chambers. In a recent analysis of soluble lipid binding to two non-equivalent sites on fIXa, it was shown that a narrow protein concentration range was sufficient to obtain stoichiometries for each site. […] For each protein concentration, three aliquots were withdrawn and phosphate concentrations were measured.

fXa = target: fXa; set-up: method as in PMID 21859710; details: soluble lipid; read-out: Kd for binding of fXa; cited from earlier work
[3] = Critical micelle concentration by pyrene fluorescence; type: physicochemical; details: under experimental conditions
Method: as §1
Since pyrene is hydrophobic, partitioning into the interior of a micelle is manifested as a sharp increase in the ratio of the intensity of the pyrene emissions at 373 and 383 nm.

human fXa = human fXa (Homo sapiens, UniProt P00742); assay: FXa inhibition assay: AT-mediated inhibition of fXa amidolytic activity (S2765); type: biochemical; details: 40 nM PZ, 3 μM AT, no membrane
Sequence of human fXa (P00742 41-179 limits assumed): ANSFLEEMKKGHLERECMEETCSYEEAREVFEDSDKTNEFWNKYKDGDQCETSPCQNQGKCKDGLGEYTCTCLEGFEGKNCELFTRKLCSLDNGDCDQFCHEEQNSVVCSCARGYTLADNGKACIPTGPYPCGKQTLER
Sequence of human fXa (P00742 235-488 limits assumed): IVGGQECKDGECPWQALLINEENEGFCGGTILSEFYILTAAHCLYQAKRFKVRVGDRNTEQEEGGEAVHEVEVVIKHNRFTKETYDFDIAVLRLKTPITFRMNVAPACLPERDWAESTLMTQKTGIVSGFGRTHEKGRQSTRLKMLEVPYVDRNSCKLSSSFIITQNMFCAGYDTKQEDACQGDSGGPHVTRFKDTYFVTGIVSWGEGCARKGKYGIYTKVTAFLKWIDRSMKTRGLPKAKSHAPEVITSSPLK
Method: Amidolytic activity of human fXa was measured in an assay mixtures containing 5 nM fXa, 3 μM AT, 50 μM phospholipid membrane (DOPS:DOPC, DOPE:DOPC, and only DOPC) and 40 nM PZ in buffer (50 mM Tris, 175 mM NaCl, 0.6% PEG, 5 mM CaCl2, pH 7.4 using the substrate S2765 according to the method described in [31]. Briefly, mixtures (150 μl) containing fXa in appropriate buffer were incubated with or without PZ and with or without membrane at 37°C in the wells of a microtiter plate for 5 mins before adding AT to that. 1 mM of substrate S2765 was added then and initial rate of substrate cleavage was determined by measuring the absorbance at 405 nm using the plate reader (Molecular Devices, CA, USA). Factor Xa activity was determined by comparing the initial rate of substrate cleavage with a standard curve produced with various concentrations of factor Xa in the same buffer conditions.

[4] = 150 nM PZ, 5 mM CaCl2, pH 7.5, 25° C, no pre-incubation lipid, single-site binding model, read-out: apparent Kd for binding to PZ
[5] = 1 mM Ca2+, read-out: binding Kd to PZ in presence of 1 mM Ca2+

Compound: CCCCCC(=O)OC[C@H](COP(=O)(O)OC[C@H](N)C(=O)O)OC(=O)CCCCC [C6PS, 1,2-dicaproyl-sn-glycero-3-phospho-L-serine]
Kd (PZ [1]; [4]): 47.7 ± 10.7 µM
Kd (PZ [1]; [5]): 165 µM
Kd in 1 mM Ca2+ relative to Kd in 5 mM Ca2+ (PZ [1]): about 3.5 fold
binding to PZ with excess EDTA (PZ [1]): did not observe any binding
Stoichiometry (Average) of lipid binding to PZ (PZ [2]): 2.0 (1.96 ± 0.1)
ΔP (difference in phosphate concentration) (PZ [2]; [PZ] 15 μM): 27.6 ± 0.2
ΔP (difference in phosphate concentration) (PZ [2]; [PZ] 20 μM): 32.3 ± 0.09
ΔP (difference in phosphate concentration) (PZ [2]; [PZ] 30 μM): 45.3 ± 0.1
binding to PZ in equilibrium dialysis without Ca2+ (PZ [2]): did not detect any binding
Kd (fXa): 86 µM
critical micelle concentration (CMC) [3]: 950 µM

Compound: CCCCCC(=O)OC[C@H](COP(=O)(O)O)OC(=O)CCCCC [C6PA]
Kd (PZ [1]; [4]): 165 ± 25 µM
effect of pre-incubation of PZ with C6PS on affinity of PZ towards the lipid (PZ [1]): did not alter the affinity; also recorded: did not enhance the affinity
lower binding affinity to PZ compared to PS and PE (PZ [1]): ~ 3 fold

Compound: CCCCCC(=O)OC[C@H](COP(=O)([O-])OCC[N+](C)(C)C)OC(=O)CCCCC [C6PC]
Kd (PZ [1]; [4]): 129 ± 32 µM
effect of pre-incubation of PZ with C6PS on affinity of PZ towards the lipid (PZ [1]): did not alter the affinity; also recorded: did not enhance the affinity
lower binding affinity to PZ compared to PS and PE (PZ [1]): ~ 3 fold

Compound: PZ: human Protein Z, 62 kDa vitamin K-dependent cofactor
effect of inclusion of PZ on AT inhibition of fXa (human fXa): essentially no effect

Compound: CCCCCC(=O)OC[C@H](COP(=O)(O)OCCN)OC(=O)CCCCC [C6PE, 1,2-dicaproyl-sn-glycero-3-phospho-L-ethanolamine]
Kd (PZ [1]; 150 nM PZ, 5 mM CaCl2, pH 7.5, 25° C, no pre-incubation lipid, single-site binding model, listed as PE, read-out: apparent Kd for binding to PZ): ~48 µM
Kd (PZ [1]; [4]): 47.6 ± 8.2 µM
Kd (PZ [1]; [5]): 172 µM
Kd in 1 mM Ca2+ relative to Kd in 5 mM Ca2+ (PZ [1]): about 3.5 fold
binding to PZ with excess EDTA (PZ [1]): did not observe any binding
Stoichiometry (Average) of lipid binding to PZ (PZ [2]): 2.0 (1.93 ± 0.2)
ΔP (difference in phosphate concentration) (PZ [2]; [PZ] 15 μM): 28.9 ± 0.08
ΔP (difference in phosphate concentration) (PZ [2]; [PZ] 20 μM): 31.8 ± 0.2
ΔP (difference in phosphate concentration) (PZ [2]; [PZ] 30 μM): 42.8 ± 0.6
binding to PZ in equilibrium dialysis without Ca2+ (PZ [2]): did not detect any binding
Kd (fXa): 91 µM
critical micelle concentration (CMC) [3]: 1200 µM

Second part, led by results:

Kd (PZ [1]; [4]): 131 ± 39 µM
lower binding affinity to PZ compared to PS and PE (PZ [1]): ~ 3 fold
Compound: CCCCCC(=O)OC[C@H](COP(=O)(O)OCC(O)CO)OC(=O)CCCCC (stereo partly shown) [C6PG]
effect of pre-incubation of PZ with C6PS on affinity of PZ towards the lipid (PZ [1]): did not alter the affinity; also recorded: did not enhance the affinity

Kd (PZ [1]; [4]): 911 ± 300 µM
Compound: CCCCCC(=O)OC[C@H](COP(=O)(O)OC[C@@H](N)C(=O)O)OC(=O)CCCCC [C6(D)PS]
